The subject of this test is multi-drug resistant M. tuberculosis (Peru isolate). Description: microbe, parasite or virus in culture. Type of test: cell-based. As to conditions: Mycobacterium tuberculosis, 240 h, read-out: MIC, MDR-TB Peru isolate.

Bounds are passed on as bounds.

Take `NNC(=O)c1ccncc1` [Isoniazid]: the MIC was over 4 µg/mL.
Consider `CO[C@H]1/C=C/O[C@@]2(C)Oc3c(C)c(O)c4c(O)c(c(/C=N/N5CCN(C)CC5)c(O)c4c3C2=O)NC(=O)/C(C)=C\C=C\[C@H](C)[C@H](O)[C@@H](C)[C@@H](O)[C@@H](C)[C@H](OC(C)=O)[C@@H]1C` [Rifampicin], for which the MIC is over 4 µg/mL.

The record behind these values is patent US12171734B2, “Pathogenic bacteria” (Sporegen Limited, priority 2018, dated 2024).
